Numbers after ± are expanded uncertainties.
Conditions: Liquid, Frequency=8 MHz, Pulse-echo method

For [2H]O[2H] [water-d2], the speed of sound (278.21 K, 150.19 kPa) was 1326 ± 0.68 m/s, the speed of sound (278.21 K, 152.01 kPa) was 1326 ± 0.68 m/s and the speed of sound (278.21 K, 5021.9 kPa) was 1332.5 ± 0.68 m/s. It also gave a speed of sound (278.21 K, 5025.1 kPa) of 1332.5 ± 0.68 m/s, a speed of sound (278.21 K, 9983.4 kPa) of 1339.3 ± 0.69 m/s and a speed of sound (278.21 K, 9986 kPa) of 1339.3 ± 0.69 m/s. The speed of sound (278.21 K, 15113 kPa) was 1346.4 ± 0.69 m/s, the speed of sound (278.21 K, 15117 kPa) was 1346.5 ± 0.69 m/s and the speed of sound (278.21 K, 20109 kPa) was 1353.6 ± 0.69 m/s. The speed of sound (278.21 K, 20152 kPa) was 1353.7 ± 0.69 m/s, the speed of sound (278.22 K, 2465.2 kPa) was 1329.1 ± 0.68 m/s and the speed of sound (278.22 K, 2465.6 kPa) was 1329.1 ± 0.68 m/s. It also gave a speed of sound (283.21 K, 154.9 kPa) of 1347.8 ± 0.69 m/s, a speed of sound (283.21 K, 156.96 kPa) of 1347.8 ± 0.69 m/s and a speed of sound (283.21 K, 2494.8 kPa) of 1351.1 ± 0.69 m/s. The speed of sound (283.21 K, 2498 kPa) was 1351.1 ± 0.69 m/s, the speed of sound (283.21 K, 5043.1 kPa) was 1354.6 ± 0.69 m/s and the speed of sound (283.21 K, 5043.6 kPa) was 1354.6 ± 0.69 m/s. The speed of sound (283.21 K, 9942.4 kPa) was 1361.6 ± 0.69 m/s, the speed of sound (283.21 K, 9943.6 kPa) was 1361.6 ± 0.69 m/s and the speed of sound (283.21 K, 15142 kPa) was 1369 ± 0.7 m/s. For the same compound, the speed of sound (283.21 K, 15143 kPa) was 1369.1 ± 0.7 m/s, the speed of sound (283.21 K, 20195 kPa) was 1376.4 ± 0.7 m/s and the speed of sound (283.21 K, 20198 kPa) was 1376.4 ± 0.7 m/s. For the same compound, the speed of sound (293.2 K, 179.82 kPa) was 1384.1 ± 0.7 m/s, the speed of sound (293.2 K, 181.19 kPa) was 1384.1 ± 0.7 m/s and the speed of sound (293.2 K, 2473.1 kPa) was 1387.5 ± 0.7 m/s. For the same compound, the speed of sound (293.2 K, 2473.2 kPa) was 1387.5 ± 0.7 m/s, the speed of sound (293.2 K, 5119.8 kPa) was 1391.4 ± 0.71 m/s and the speed of sound (293.2 K, 5125.6 kPa) was 1391.4 ± 0.71 m/s. It also gave a speed of sound (293.2 K, 10078 kPa) of 1398.8 ± 0.71 m/s, a speed of sound (293.2 K, 10086 kPa) of 1398.8 ± 0.71 m/s and a speed of sound (293.2 K, 15047 kPa) of 1406.2 ± 0.71 m/s. The speed of sound (293.2 K, 15052 kPa) was 1406.2 ± 0.71 m/s, the speed of sound (293.2 K, 20333 kPa) was 1414.2 ± 0.97 m/s and the speed of sound (293.2 K, 20361 kPa) was 1414.2 ± 0.97 m/s. The speed of sound (313.2 K, 109.61 kPa) was 1432.5 ± 0.72 m/s, the speed of sound (313.2 K, 109.88 kPa) was 1432.5 ± 0.72 m/s and the speed of sound (313.2 K, 2458.2 kPa) was 1436.3 ± 0.72 m/s. The speed of sound (313.2 K, 2468.5 kPa) was 1436.3 ± 0.72 m/s, the speed of sound (313.2 K, 5110.5 kPa) was 1440.5 ± 0.72 m/s and the speed of sound (313.2 K, 5110.8 kPa) was 1440.5 ± 0.72 m/s. It also gave a speed of sound (313.2 K, 15060 kPa) of 1456.3 ± 0.73 m/s, a speed of sound (313.2 K, 20267 kPa) of 1464.5 ± 0.73 m/s and a speed of sound (313.2 K, 20276 kPa) of 1464.6 ± 0.73 m/s. For the same compound, the speed of sound (333.2 K, 195.58 kPa) was 1456.2 ± 0.73 m/s, the speed of sound (333.2 K, 211.29 kPa) was 1456.2 ± 0.73 m/s and the speed of sound (333.2 K, 2499.2 kPa) was 1460.1 ± 0.73 m/s. The speed of sound (333.2 K, 2499.6 kPa) was 1460.1 ± 0.73 m/s, the speed of sound (333.2 K, 5054.7 kPa) was 1464.5 ± 0.73 m/s and the speed of sound (333.2 K, 5055 kPa) was 1464.5 ± 0.73 m/s. For the same compound, the speed of sound (333.2 K, 10044 kPa) was 1473 ± 2.3 m/s, the speed of sound (333.2 K, 10071 kPa) was 1473.1 ± 2.3 m/s and the speed of sound (333.2 K, 20122 kPa) was 1490 ± 0.74 m/s. It also gave a speed of sound (333.2 K, 20126 kPa) of 1490 ± 0.74 m/s, a speed of sound (353.2 K, 142.15 kPa) of 1460.6 ± 0.73 m/s and a speed of sound (353.2 K, 144.59 kPa) of 1460.6 ± 0.73 m/s. The speed of sound (353.2 K, 2522.3 kPa) was 1465.1 ± 0.73 m/s, the speed of sound (353.2 K, 2528 kPa) was 1465 ± 0.73 m/s and the speed of sound (353.2 K, 5032.1 kPa) was 1469.7 ± 0.74 m/s. The speed of sound (353.2 K, 5034.1 kPa) was 1469.7 ± 0.74 m/s, the speed of sound (353.2 K, 10091 kPa) was 1479 ± 0.74 m/s and the speed of sound (353.2 K, 10094 kPa) was 1479.1 ± 0.74 m/s. It also gave a speed of sound (353.2 K, 15060 kPa) of 1488 ± 0.74 m/s and a speed of sound (353.2 K, 15062 kPa) of 1488.1 ± 0.74 m/s.

Source: the NIST ThermoML archive (doi:10.1016/j.fluid.2015.10.034)
